Literature values in patent US20180110888A1, “COMBINATIONS FOR THE TREATMENT OF CANCER” (BAYER PHARMA AKTIENGESELLSCHAFT, priority 2012, published 2018).

Legend:
[1] = single dose 250 kBq per kg body weight
[2] = system: CRPC (Castration Resistant Prostate Cancer) and bone metastases
[3] = phase 2 studies, patients with CRPC and bone metastases

| Compound | cases of grade 3 neutropenia [1] | observed adverse reactions [1] | safety profile (bone metastases; phase 1 and 2 studies, patients with bone metastases) | effect on disease-related biomarkers (bone ALP, PSA) (bone metastases; [3]) | effect on pain (bone metastases; [3]) | reduction in risk of death compared with placebo ([2]; overall survival, patients with CRPC and bone metastases) [%] | median survival longer than placebo by ([2]; patients with CRPC and bone metastases) [months] | time to first skeletal-related event ([2]; versus placebo) | excreted by feces (in vivo) [%] | excreted by urine (in vivo) [%] | terminal half life (in vivo) [h] | effect of administration with food (oral administration with food) |
| --- | --- | --- | --- | --- | --- | --- | --- | --- | --- | --- | --- | --- |
| [Cl][223Ra][Cl] [radium-223, Radium-223 dichloride] | 1/5 | diarrhea and reversible myelosuppression | minimal myelotoxicity | improves disease-related biomarkers | reduces pain | 30.5 | 2.8 | significantly prolonged |  |  |  |  |
| C[C@]12CC[C@H](O)CC1=CC[C@@H]1[C@@H]2CC[C@]2(C)C(c3cccnc3)=CC[C@@H]12 [abiraterone] |  |  |  |  |  |  |  |  | ~88 | ~5 | 12 ± 5 | increases absorption |
